For orientation: Ki means a dissociation constant, usually derived from enzyme kinetics or from competition with a known ligand. Higher therefore signals weaker binding. Broadly, the pKB is −log10 of the KB, conventionally taken in molar units. High values mean a low KB, low ones a high KB.

The target in experiment [1] is T1, Substance-K receptor (Rattus norvegicus, UniProt P16610).
T1 sequence (P16610 whole entry): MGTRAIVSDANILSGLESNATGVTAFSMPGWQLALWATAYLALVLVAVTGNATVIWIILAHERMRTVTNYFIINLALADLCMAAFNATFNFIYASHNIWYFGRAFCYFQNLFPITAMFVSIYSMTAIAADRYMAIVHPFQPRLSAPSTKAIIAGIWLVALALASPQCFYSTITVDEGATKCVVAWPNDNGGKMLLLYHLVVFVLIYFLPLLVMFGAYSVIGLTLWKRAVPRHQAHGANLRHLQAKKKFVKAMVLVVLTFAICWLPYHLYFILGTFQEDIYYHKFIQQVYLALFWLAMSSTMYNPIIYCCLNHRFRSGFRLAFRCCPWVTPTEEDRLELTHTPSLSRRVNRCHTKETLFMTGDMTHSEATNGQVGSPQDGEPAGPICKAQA
As to the kind of experiment: Binding affinity by displacement of radiolabeled GR-100679 from Tachykinin receptor 2 from homogenized rat colon.

The next experiment has as its target T2, Neuromedin-K receptor (Cavia porcellus, UniProt P30098).
T2 sequence (P30098 whole entry): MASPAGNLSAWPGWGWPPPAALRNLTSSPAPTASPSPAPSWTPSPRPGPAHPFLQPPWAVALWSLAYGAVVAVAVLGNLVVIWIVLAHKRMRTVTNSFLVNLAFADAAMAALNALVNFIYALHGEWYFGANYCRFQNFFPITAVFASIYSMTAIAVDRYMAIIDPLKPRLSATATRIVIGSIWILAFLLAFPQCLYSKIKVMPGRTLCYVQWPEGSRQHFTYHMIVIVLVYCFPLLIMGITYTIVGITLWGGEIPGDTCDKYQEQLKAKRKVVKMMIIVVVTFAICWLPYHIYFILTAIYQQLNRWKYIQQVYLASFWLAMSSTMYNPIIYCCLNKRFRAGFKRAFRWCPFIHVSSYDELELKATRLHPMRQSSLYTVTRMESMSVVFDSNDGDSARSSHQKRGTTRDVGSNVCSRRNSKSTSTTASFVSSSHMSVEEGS
As to the kind of experiment: Tested for inhibition of binding of [3H]senktide to Tachykinin receptor 3 in guinea pig cerebral cortex membranes. In kind it is tissue-based, Membrane.

Experiment [2] addresses T3, Substance-K receptor (Homo sapiens, UniProt P21452).
T3 sequence (P21452 whole entry): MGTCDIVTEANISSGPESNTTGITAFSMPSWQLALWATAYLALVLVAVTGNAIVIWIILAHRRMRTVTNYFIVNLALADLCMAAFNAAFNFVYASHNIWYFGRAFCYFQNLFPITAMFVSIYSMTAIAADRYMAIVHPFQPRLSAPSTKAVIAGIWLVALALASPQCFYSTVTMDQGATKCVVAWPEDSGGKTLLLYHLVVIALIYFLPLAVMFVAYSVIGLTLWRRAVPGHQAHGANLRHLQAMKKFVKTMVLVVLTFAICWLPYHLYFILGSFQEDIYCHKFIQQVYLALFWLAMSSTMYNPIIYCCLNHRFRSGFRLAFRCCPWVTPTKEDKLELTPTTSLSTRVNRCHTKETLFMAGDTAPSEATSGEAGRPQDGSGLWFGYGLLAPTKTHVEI
Nature of the experiment: Binding affinity against Tachykinin receptor 2 of human expressed in chinese hamster ovary cells. In kind it is cell-based, CHO.

The target in experiment [3] is T4, Substance-K receptor (Cavia porcellus) (UniProt Q64077).
T4 sequence (whole entry): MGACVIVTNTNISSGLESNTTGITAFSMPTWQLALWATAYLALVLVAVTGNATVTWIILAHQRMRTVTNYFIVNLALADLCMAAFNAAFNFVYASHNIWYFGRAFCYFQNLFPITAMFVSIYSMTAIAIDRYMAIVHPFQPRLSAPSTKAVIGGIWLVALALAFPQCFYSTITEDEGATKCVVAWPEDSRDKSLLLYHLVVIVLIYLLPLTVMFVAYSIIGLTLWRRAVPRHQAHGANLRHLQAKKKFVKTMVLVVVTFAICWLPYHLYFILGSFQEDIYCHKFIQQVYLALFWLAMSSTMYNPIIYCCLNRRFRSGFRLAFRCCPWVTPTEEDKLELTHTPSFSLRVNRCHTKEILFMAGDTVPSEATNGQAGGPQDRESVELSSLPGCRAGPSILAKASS
Nature of the experiment: Binding affinity against Tachykinin receptor 2 in guinea-pig trachea.

The next experiment concerns Cavia porcellus. Nature of the experiment: In vivo ability to inhibit bronchoconstriction induced by GR-64349 (i.v.) in guinea pigs. In kind it is functional.
In experiment [4] the target is T4, Substance-K receptor (Cavia porcellus).
Description: Binding affinity against NK2 receptor in guinea-pig trachea

Turning to `O=S(=O)(CC1(O)CCN(CCc2c[nH]c3ccc(F)cc23)CC1)c1ccccc1`, the Ki at Substance-K receptor [1] is 31.6 nM. At Substance-K receptor [1], `Cc1ccccc1OCC1(O)CCN(CCc2c[nH]c3ccc(F)cc23)CC1` had a Ki of 31.6 nM. Consider `[O-][S+](CC1(O)CCN(CCc2c[nH]c3ccc(F)cc23)CC1)c1ccccc1` (stereo in doubt; 9) [4-BENZENESULFINYLMETHYL-1-[2-(5-FLUORO-1H-INDOL-3-YL)-ETHYL]-PIPERIDIN-4-OL (STRUCTURAL MIX)], for which the Ki at Substance-K receptor [1] is 7.94 nM. As for `[O-][S@+](CC1(O)CCN(CCc2c[nH]c3ccc(F)cc23)CC1)c1ccccc1` (stereo in doubt; 8) [listing 1 of 2 here], the results for the Ki on Substance-K receptor [1] and at Neuromedin-K receptor were 0.316 nM and 39800 nM, respectively. Take `COC1(C[S@@+]([O-])c2ccccc2)CCN(CCc2c[nH]c3ccc(F)cc23)CC1`: the Ki was 0.316 nM on Substance-K receptor [2], 0.1 nM on Substance-K receptor [1] and 20000 nM at Neuromedin-K receptor. This compound gave a pKB in experiment [3] of 9.7. This compound yielded a Dose with Cavia porcellus of 3 µM/kg. Compound `[O-][S@+](CC1(O)CCN(CCc2c[nH]c3ccc(F)cc23)CC1)c1ccccc1` (stereo in doubt; 5) gave an inhibition constant Ki on Substance-K receptor [1] of 3.98 nM. In the experiment on Cavia porcellus, this compound returned a Dose of 3 µM/kg. The compound `N#Cc1ccc2[nH]cc(CCN3CCC(NC(=O)c4ccccc4)CC3)c2c1` showed a Ki on Substance-K receptor [1] of 1580 nM. In turn, `[O-][S@+](CC1(O)CCN(CCc2c[nH]c3ccc(F)cc23)CC1)c1ccccc1` (stereo in doubt; 8) [listing 2 of 2 here] displayed a pKB in experiment [4] of 8.7. `Cc1ccccc1OCC(O)CNCCc1c[nH]c2ccc(F)cc12` (stereo unspecified) had an inhibition constant (Ki) at Substance-K receptor [1] of 1000 nM. For `[O-][S+](CC1(O)CCN(CCc2c[nH]c3ccc(F)cc23)CC1)c1ccccc1` (stereo in doubt; 6) [4-BENZENESULFINYLMETHYL-1-[2-(5-FLUORO-1H-INDOL-3-YL)-ETHYL]-PIPERIDIN-4-OL (STRUCTURAL MIX)], the Ki on Substance-K receptor [1] was 0.501 nM.

(Values after ChEMBL document CHEMBL1127949, “GR159897 and related analogues as highly potent, orally active non-peptide neurokinin NK2 receptor antagonists” (Bioorg Med Chem Lett, 1994).)
